Results: patent US20140316004A1, “TREATMENT OF POULTRY FOR REDUCING THE FEED CONVERSION RATE OR FOR REDUCING THE INCIDENCE OF ASCITES” (TAMINCO N.V., priority 2006, published 2014)

Legend:
[1] = 1000 mg pangamic acid per kg of feed; not affected, same as control group; cited from earlier work
[2] = test system: ascites; details: coenzyme Q added to high-calorie pelletized feed, growth rate higher than 50 g/day; cited from earlier work
[3] = Broiler slaughter test: production performance (mortality, growth rate, feed conversion rate); assay type: in vivo, broilers; details: 167 mg DMG per kg feed
Excerpt: (§1) To examine all the effects associated with the supplementation of dimethylglycine in fowl feed, a test was setup with broilers as model species. In this slaughter test with 64 broiler hens, 14-day old chickens were bred for 26 days, i.e. till the age of 40 days. At the beginning of the test the broilers were ad random divided in 16 groups of 4 specimens. The birds were fed with one type of feed from the first day on till the end of the test period. The type of feed was attributed on a random basis to the different housings. The animals were setup with a colored ring around their leg for identification purposes within each housing. The control feed was based on a commercial broiler crumble enriched with 5% corn oil to increase the oxidative stress in the feed. Further 1% celite was mixed into the feed as external marker to allow the determination of the apparent nutrient digestibility. The feed had the following composition: 87.65% dry matter, 6.13% ash, 18.05% crude protein, 9.13% crude fat, 4.32% crude fibre and 50.01% other carbohydrates (including 89% starch and 2% sugar). It has a (calculated) metabolizable energy value of about 13.4 MJ/kg.
(§2) In the second type of feed 167 mg of DMG was added per kilogram to the same composition of feed as described for the control feed. Over the entire test period, the broilers consumed on average about 25 mg DMG per bird per day. The housing of the broilers consisted out of circular housings with an open roof and bottom and with a total surface of 0.72 m^2. The material of the fencing was a flexible wire netting with a height of 1 m and mazes of 2×2 cm and thickness of 2 mm. The bottom was strewed with a thick layer of turf with on top a layer of wood-shavings. Feed and water were ad libitum available at all times. The average environmental temperature was maintained at 15° C. to increase the occurrence of ascites (Shlosberg A., Zadikov I., Bendheim U., Handji V., Berman E. Avian Pathology, 21, 369-382 (1992)). A conventional light scheme of 23 hours light:1 hour dark was applied
The daily growth during the two periods (between the first and fifteenth day and between the sixteenth and twentysixth day) was calculated for each surviving animal. The feed uptake for each housing was also measured during both periods. The commercial feed conversion rate was calculated for each of the housings for both periods (FCRI and FCR II) and for the total growth period. This commercial feed conversion rate was calculated by dividing the total feed consumption by the weight gain of the birds which stayed alive during the entire experiment, including also the feed consumption of the birds that died. To determine only the non-therapeutic effect of DMG on the feed conversion rate, the actual feed conversion rate of the living birds was also calculated more particularly on the basis of weight gain and the feed consumed by these living birds (based on the weight gain of the birds that died, the amount of feed consumed by these birds was detracted from the total feed consumption).

[4] = test system: ascites; assay: Broiler slaughter test: incidence of ascites and ascites heart index at autopsy; assay type: in vivo, broilers
Excerpt: as §1, §2
Finally there was also an autopsy on all chickens. First, the carcass weight was determined by dissection of the head, the paws, evisceration and the deduction of the average feather weight. Next, the weight of the breast, buttock and thigh muscle were determined. Also the heart, liver and abdominal fat were measured. Macroscopic lesions related to ascites were visually reviewed and described as indicated by Scheele et al. (2003) (Scheele, C. W., Van Der Klis, J. D., Kwakernaak, C., Buys, N., Decuypere, E., British Poultry Science, 44(3), 484-489 (2003)), these were: accumulation of liquid in the abdomen, a hydropericard and right heart dilatation. The latter was quantified by the ascites heart index (AHD being the ratio of the dry weight of the right ventricle to the dry weight of both ventricles after freeze drying.

Compound: CN(C)CC(=O)OC[C@@H](O)[C@@H](O)[C@H](O)[C@@H](O)C(=O)O [pangamic acid, 6-O-(dimethylaminoacetyl)-D-gluconic acid]
- feed conversion rate [1]: about 2.5

Compound: coenzyme Q
- mortality due to ascites [2]: reduced considerably

Compound: CN(C)CC(=O)O [DMG, N,N-dimethylglycine]
- Mortality (%) ([3]; 26-day test, 15° C, feed enriched with 5% corn oil): 6.25%
- Growth rate (g/d) Phase I (days 1-15) ([3]; days 1-15): 70 g/day
- Commercial feed conversion FCR I (days 1-15) ([3]; days 1-15, includes feed of birds that died): 2.23
- Actual feed conversion FCR I (days 1-15) ([3]; days 1-15, living birds only): 2.07
- Growth rate (g/d) Total (days 1-26) ([3]; days 1-26): 77 g/day
- Commercial feed conversion FCR total (days 1-26) ([3]; days 1-26, includes feed of birds that died): 2.19
- Actual feed conversion FCR total (days 1-26) ([3]; days 1-26, living birds only): 2.09
- Growth rate (g/d) Phase II (days 15-26) ([3]; days 15-26): 87 g/day
- Commercial feed conversion FCR II (days 15-26) ([3]; days 15-26, includes feed of birds that died): 2.17
- Actual feed conversion FCR II (days 15-26) ([3]; days 15-26, living birds only): 2.13
- Ascites (%) ([4]; 167 mg DMG per kg feed, 26-day test, 15° C): 6.25%
- AHI, all animals (ascites heart index) ([4]; 167 mg DMG per kg feed, autopsy, all animals): 0.242
- AHI, surviving animals (ascites heart index) ([4]; 167 mg DMG per kg feed, autopsy, surviving animals): 0.241
- Influence DMG (%) on AHI, all animals ([4]; versus control, all animals): −17.5%
- Influence DMG (%) on AHI, surviving animals ([4]; versus control, surviving animals): −19.2%
